Experiment: AERSMine mining of FAERS reports: lithium toxicity and inversely correlated drugs
Set-up: species or system patients
Conditions: for safety signal IC for lithium-specific neurological adverse events: human
Source text: To establish lithium-adverse event correlation, AERSMine uses multiple quantitative elements such as AE incidence rate, multiple hypothesis testing, relative risk, and safety signals. For this example, the following analytical parameters were used: total reports per adverse event were set to ≥2,000; adverse event and lithium intake co-reported in at least 10 reports; RR set to ≥2; FDR-corrected p-value of <0.001 (Benjamini and Hochberg); and safety signal (i.e., IC) set to >0.
Additionally, by excluding patients with comorbidities (e.g., diabetes) reported to worsen mental health and exacerbate neurological symptoms from the analysis, allows AERSMine to accurately represent potentially lithium-specific adverse events (e.g., aggression, irritability, anger, suicidal tendencies, tremors, and other neurological symptoms, movement disorders, personality changes, etc.). The inventors then sought to determine if AERSMine could identify drugs that are inversely correlated with these adverse events, which may indicate a potential reduction in risk and represent a novel combinatorial strategy to mitigate lithium-related toxicity. […] (no concomitant use with lithium, IC<0, i.e., number of observed events<expected, FDR-corrected p<0.001). To understand how the risks differ across these therapeutic agents, AERSMine additionally allows comparative analyses across multiple drugs or therapeutic classes, which show the differential effects across the inversely correlated drugs.

Row | SMILES | safety signal IC for lithium-specific neurological adverse events | number of adverse events significantly correlated with lithium use (of 4,180 adverse events in 22,575 patient reports, RR>=2, FDR p<0.001, IC>0) [adverse events]
1 | CCCCC(=O)N(Cc1ccc(-c2ccccc2-c2nnn[nH]2)cc1)[C@H](C(=O)O)C(C)C [valsartan] | < 0 | 
2 | [Li] [lithium] |  | 327
3 | CCCCc1nc(Cl)c(CO)n1Cc1ccc(-c2ccccc2-c2nn[nH]n2)cc1 [losartan] | < 0 | 
